# Assays:
# [1] = Lipophilicity, logP of the compound; format: physicochemical; conditions: octanol/water
# Mus musculus [2] = test: Anesthetic activity in mouse assessed as concentration required to induce hypnotic effect; format: functional, organism-based
# [3] = Toxicity in mouse assessed as lethal dose; conditions: in vivo
# [4] = Therapeutic index, ratio of LD50 for toxicity in mouse to HD50 for anesthetic activity in mouse; format: organism-based; conditions: in vivo, read-out: TI
# Mus musculus [5] = test: Anesthetic activity in mouse assessed as onset time; format: functional
# Mus musculus [6] = test: Anesthetic activity in mouse assessed as time duration of loss of righting reflex; format: functional
# Mus musculus [7] = test: Anesthetic activity in mouse assessed as time to walk at 2 times of HD50 concentration; format: functional
# Rattus norvegicus [8] = test: Anesthetic activity in rat assessed as concentration required to induce hypnotic effect; format: functional, organism-based
# [9] = Toxicity in rat assessed as lethal dose; conditions: in vivo
# [10] = Therapeutic index, ratio of LD50 for toxicity in rat to HD50 for anesthetic activity in rat; conditions: read-out: TI
# Oryctolagus cuniculus [11] = test: Anesthetic activity in rabbit assessed as concentration required to induce hypnotic effect; format: functional, organism-based
# [12] = Toxicity in rabbit assessed as lethal dose; parameters: species or system Oryctolagus cuniculus; conditions: in vivo
# [13] = Therapeutic index, ratio of LD50 for toxicity in rabbit to HD50 for anesthetic activity in rabbit; conditions: read-out: TI
# Rattus norvegicus [14] = test: Anesthetic activity in rat assessed as onset time; format: functional
# Rattus norvegicus [15] = test: Anesthetic activity in rat assessed as time duration of loss of righting reflex; format: functional
# Rattus norvegicus [16] = test: Anesthetic activity in rat assessed as time to walk at 2 times of HD50 concentration; format: functional
# Oryctolagus cuniculus [17] = test: Anesthetic activity in rabbit assessed as onset time; format: functional
# Oryctolagus cuniculus [18] = test: Anesthetic activity in rabbit assessed as time duration of loss of righting reflex; format: functional
# Oryctolagus cuniculus [19] = test: Anesthetic activity in rabbit assessed as time to walk at 2 times of HD50 concentration; format: functional
# [20] = target: GABA-A receptor; anion channel (Homo sapiens) (UniProt P14867+P47870+P18507+P28472+P48169+Q99928+Q9UN88+P34903+O00591+O14764+Q8N1C3+P18505+P78334+P47869+P31644+Q16445); test: Inhibition of GABAA receptor (unknown origin) at 50 uM by radioligand receptor binding assay relative to control; format: protein-complex assay
# [21] = target: Sigma non-opioid intracellular receptor 1 (Homo sapiens) (UniProt Q99720); test: Inhibition of sigma 1 receptor (unknown origin) at 50 uM by radioligand receptor binding assay relative to control
# Sequence of Sigma non-opioid intracellular receptor 1 (Homo sapiens) (Q99720 whole entry): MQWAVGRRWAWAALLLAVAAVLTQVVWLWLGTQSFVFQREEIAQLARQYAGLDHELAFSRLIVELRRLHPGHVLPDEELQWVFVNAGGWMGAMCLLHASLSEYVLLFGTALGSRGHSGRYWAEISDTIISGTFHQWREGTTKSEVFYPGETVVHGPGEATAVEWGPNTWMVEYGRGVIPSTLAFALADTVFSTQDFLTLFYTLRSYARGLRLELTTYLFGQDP
# [22] = target: Sigma intracellular receptor 2 (Homo sapiens) (UniProt Q5BJF2); test: Inhibition of sigma 2 receptor (unknown origin) at 50 uM by radioligand receptor binding assay relative to control
# Sequence of Sigma intracellular receptor 2 (Homo sapiens) (Q5BJF2 whole entry): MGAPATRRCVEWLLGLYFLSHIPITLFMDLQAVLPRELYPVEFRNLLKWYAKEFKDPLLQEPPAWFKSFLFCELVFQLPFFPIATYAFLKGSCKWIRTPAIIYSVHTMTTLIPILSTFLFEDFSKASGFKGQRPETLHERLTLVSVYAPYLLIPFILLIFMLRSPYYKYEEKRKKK
# [23] = target: D(2) dopamine receptor (Homo sapiens) (UniProt P14416); test: Inhibition of D2 receptor (unknown origin) at 50 uM by radioligand receptor binding assay relative to control
# Sequence of D(2) dopamine receptor (Homo sapiens) (P14416 whole entry): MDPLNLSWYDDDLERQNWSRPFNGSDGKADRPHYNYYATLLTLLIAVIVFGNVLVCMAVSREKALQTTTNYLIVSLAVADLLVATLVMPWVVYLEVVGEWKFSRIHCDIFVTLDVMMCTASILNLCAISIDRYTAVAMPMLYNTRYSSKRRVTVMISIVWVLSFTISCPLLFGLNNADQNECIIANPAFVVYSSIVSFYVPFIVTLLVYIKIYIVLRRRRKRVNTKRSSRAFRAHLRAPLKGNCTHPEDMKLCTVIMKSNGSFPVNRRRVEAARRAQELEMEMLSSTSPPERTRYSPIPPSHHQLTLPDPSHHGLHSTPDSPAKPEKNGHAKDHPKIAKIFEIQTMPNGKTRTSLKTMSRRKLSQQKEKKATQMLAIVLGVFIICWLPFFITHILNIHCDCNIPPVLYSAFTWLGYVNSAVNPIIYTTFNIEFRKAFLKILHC
# [24] = target: D(3) dopamine receptor (Homo sapiens) (UniProt P35462); test: Inhibition of D3 receptor (unknown origin) at 50 uM by radioligand receptor binding assay relative to control
# Sequence of D(3) dopamine receptor (Homo sapiens) (P35462 whole entry): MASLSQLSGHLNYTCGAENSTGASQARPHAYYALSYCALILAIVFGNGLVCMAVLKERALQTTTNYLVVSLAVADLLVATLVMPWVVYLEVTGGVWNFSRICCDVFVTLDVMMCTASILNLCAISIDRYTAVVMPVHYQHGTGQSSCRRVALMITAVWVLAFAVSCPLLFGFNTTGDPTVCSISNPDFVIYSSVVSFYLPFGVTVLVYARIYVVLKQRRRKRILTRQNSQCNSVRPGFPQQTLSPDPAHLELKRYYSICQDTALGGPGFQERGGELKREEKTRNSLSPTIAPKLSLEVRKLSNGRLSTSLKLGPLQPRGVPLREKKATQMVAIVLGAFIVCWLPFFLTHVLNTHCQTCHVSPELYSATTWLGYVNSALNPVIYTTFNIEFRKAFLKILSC
# [25] = target: Mu-type opioid receptor (Homo sapiens) (UniProt P35372); test: Inhibition of mu opioid receptor (unknown origin) at 50 uM by radioligand receptor binding assay relative to control
# Sequence of Mu-type opioid receptor (Homo sapiens) (P35372 whole entry): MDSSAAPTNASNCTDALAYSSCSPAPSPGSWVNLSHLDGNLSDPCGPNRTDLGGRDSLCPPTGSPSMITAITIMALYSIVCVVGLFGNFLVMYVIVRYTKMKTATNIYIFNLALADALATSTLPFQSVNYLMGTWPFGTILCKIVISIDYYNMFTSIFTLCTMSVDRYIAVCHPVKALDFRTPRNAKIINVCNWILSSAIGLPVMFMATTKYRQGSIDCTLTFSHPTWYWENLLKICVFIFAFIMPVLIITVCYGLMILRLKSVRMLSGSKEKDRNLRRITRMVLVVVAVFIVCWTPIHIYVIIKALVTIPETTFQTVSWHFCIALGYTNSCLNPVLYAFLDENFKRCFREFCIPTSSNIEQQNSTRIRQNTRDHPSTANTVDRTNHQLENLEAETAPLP
# [26] = target: T1, 5-hydroxytryptamine receptor 1A (Homo sapiens) (UniProt P08908); test: Inhibition of 5-HT1A receptor (unknown origin) at 50 uM by radioligand receptor binding assay relative to control
# T1 sequence (whole entry): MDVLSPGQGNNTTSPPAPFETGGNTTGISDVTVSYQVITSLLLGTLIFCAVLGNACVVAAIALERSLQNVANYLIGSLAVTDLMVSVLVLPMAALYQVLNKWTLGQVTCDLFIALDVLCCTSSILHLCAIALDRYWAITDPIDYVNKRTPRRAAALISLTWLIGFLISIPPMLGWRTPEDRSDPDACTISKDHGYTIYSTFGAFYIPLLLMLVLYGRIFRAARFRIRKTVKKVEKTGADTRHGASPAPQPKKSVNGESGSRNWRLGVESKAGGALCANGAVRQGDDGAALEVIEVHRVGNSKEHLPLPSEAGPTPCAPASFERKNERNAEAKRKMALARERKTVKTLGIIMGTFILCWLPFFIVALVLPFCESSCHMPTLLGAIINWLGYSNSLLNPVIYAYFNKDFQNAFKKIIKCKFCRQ
# [27] = target: 5-hydroxytryptamine receptor 2A (Homo sapiens) (UniProt P28223); test: Inhibition of 5-HT2A receptor (unknown origin) at 50 uM by radioligand receptor binding assay relative to control
# Sequence of 5-hydroxytryptamine receptor 2A (Homo sapiens) (P28223 whole entry): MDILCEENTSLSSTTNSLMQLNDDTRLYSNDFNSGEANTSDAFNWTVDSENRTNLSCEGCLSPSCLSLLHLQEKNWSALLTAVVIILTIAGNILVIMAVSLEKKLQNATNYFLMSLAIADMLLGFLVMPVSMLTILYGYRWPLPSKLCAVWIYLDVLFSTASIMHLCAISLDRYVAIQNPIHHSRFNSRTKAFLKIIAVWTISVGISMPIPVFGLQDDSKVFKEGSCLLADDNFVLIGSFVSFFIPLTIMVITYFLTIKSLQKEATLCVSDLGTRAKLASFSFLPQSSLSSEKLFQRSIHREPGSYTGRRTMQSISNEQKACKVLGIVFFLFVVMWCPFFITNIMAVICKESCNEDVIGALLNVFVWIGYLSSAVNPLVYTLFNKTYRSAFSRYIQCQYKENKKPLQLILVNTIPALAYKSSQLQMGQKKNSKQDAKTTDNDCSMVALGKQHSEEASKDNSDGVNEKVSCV
# [28] = target: Sodium-dependent serotonin transporter (Homo sapiens) (UniProt P31645); test: Inhibition of 5-HT transporter (unknown origin) at 50 uM by radioligand receptor binding assay relative to control
# Sequence of Sodium-dependent serotonin transporter (Homo sapiens) (P31645 whole entry, looked up): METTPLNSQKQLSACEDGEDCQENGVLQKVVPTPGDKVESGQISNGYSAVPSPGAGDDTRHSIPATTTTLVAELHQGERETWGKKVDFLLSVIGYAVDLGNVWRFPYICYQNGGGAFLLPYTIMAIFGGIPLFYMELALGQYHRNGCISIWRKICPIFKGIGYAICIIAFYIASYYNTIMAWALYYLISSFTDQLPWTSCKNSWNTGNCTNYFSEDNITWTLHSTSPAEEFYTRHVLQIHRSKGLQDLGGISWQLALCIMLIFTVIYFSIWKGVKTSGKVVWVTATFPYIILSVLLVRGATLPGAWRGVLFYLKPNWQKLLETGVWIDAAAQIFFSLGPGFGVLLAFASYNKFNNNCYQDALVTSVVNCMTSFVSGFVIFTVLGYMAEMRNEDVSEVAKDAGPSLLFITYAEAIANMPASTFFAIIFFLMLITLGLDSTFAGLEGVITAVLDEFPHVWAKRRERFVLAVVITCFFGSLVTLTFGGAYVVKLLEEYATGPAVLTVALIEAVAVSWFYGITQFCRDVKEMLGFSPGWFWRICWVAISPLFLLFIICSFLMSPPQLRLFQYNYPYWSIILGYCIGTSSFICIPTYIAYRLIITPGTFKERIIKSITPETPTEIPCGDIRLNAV
# [29] = target: Sodium-dependent noradrenaline transporter (Homo sapiens) (UniProt P23975); test: Inhibition of Noradrenaline receptor (unknown origin) at 50 uM by radioligand receptor binding assay relative to control
# Sequence of Sodium-dependent noradrenaline transporter (Homo sapiens) (P23975 whole entry): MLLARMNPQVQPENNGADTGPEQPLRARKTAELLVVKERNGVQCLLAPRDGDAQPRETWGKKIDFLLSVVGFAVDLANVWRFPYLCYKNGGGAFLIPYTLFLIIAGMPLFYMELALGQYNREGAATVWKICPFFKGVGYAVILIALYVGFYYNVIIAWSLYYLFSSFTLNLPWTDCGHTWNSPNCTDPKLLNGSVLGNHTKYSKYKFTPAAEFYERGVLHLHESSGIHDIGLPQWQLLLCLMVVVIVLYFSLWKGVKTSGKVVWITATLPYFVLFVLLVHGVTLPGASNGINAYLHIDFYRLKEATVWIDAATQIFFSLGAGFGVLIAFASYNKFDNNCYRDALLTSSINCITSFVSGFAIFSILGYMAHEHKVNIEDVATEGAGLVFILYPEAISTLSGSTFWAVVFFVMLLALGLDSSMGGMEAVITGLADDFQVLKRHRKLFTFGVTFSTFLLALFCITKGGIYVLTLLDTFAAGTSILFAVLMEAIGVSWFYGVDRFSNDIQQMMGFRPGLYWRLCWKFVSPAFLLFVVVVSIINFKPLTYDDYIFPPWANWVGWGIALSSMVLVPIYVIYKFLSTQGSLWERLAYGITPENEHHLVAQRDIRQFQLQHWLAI
# [30] = target: Glutamate [NMDA] receptor (Homo sapiens) (UniProt Q05586+Q12879+Q13224+O15399+O60391+Q14957+Q8TCU5); test: Inhibition of NMDA receptor (unknown origin) at 50 uM by radioligand receptor binding assay relative to control; format: protein-complex assay
# [31] = target: Cannabinoid receptor 1 (Homo sapiens) (UniProt P21554); test: Inhibition of CB1 receptor (unknown origin) at 50 uM by radioligand receptor binding assay relative to control
# Sequence of Cannabinoid receptor 1 (Homo sapiens) (P21554 whole entry): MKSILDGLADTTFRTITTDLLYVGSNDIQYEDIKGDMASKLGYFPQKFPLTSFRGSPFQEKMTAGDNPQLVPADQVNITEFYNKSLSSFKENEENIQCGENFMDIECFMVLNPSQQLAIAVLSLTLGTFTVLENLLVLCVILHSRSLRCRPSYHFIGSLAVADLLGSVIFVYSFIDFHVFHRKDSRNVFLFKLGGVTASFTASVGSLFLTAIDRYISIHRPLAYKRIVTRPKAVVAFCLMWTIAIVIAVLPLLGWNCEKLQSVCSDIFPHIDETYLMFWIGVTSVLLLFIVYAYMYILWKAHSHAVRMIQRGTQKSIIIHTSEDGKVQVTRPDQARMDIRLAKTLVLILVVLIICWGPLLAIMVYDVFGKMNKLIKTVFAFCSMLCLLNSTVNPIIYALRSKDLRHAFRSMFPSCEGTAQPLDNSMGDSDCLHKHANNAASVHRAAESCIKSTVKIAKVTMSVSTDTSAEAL
# [32] = target: Cannabinoid receptor 2 (Homo sapiens) (UniProt P34972); test: Inhibition of CB2 receptor (unknown origin) at 50 uM by radioligand receptor binding assay relative to control
# Sequence of Cannabinoid receptor 2 (Homo sapiens) (P34972 whole entry): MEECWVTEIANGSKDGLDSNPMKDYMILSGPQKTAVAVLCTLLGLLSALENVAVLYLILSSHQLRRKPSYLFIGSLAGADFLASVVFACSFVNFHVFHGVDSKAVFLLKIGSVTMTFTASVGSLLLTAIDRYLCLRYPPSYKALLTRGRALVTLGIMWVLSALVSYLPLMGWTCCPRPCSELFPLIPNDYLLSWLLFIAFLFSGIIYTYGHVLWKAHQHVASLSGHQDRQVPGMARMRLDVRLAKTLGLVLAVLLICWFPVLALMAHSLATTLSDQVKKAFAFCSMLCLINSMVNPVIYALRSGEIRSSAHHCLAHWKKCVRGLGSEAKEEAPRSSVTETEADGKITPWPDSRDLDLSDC
# [33] = target: T2, Alpha-2A adrenergic receptor (Homo sapiens) (UniProt P08913); test: Inhibition of adrenergic alpha 2A receptor (unknown origin) at 50 uM by radioligand receptor binding assay relative to control
# T2 sequence (whole entry): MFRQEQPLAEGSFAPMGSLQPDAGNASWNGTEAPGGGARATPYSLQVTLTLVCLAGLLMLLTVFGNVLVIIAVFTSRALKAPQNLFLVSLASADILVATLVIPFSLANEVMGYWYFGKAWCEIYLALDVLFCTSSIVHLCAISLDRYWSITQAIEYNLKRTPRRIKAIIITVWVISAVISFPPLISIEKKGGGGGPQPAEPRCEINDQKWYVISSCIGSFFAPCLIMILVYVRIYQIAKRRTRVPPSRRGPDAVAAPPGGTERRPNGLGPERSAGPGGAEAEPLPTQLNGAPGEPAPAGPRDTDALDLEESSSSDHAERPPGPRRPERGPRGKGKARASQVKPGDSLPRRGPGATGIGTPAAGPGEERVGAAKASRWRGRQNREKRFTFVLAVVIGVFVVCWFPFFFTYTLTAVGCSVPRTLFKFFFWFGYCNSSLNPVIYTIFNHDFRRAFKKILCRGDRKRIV
smiles,measurement,setting,value
CCCOC(=O)Cc1ccc(OCC(=O)N2CCN(c3ccccc3)CC2)c(OCC)c1,logP,[1],3.6
same,HD50 (median hypnotic dose),Mus musculus [2],25 mg/kg
same,LD50,[3],200 mg/kg
same,selectivity ratio,[4],8
same,Time,Mus musculus [5],6.4 s
same,Time,Mus musculus [6],83.3 s
same,Time,Mus musculus [7],38.6 s
same,EC50,Rattus norvegicus [8],7.1 mg/kg
same,LD50,[9],72.9 mg/kg
same,selectivity ratio,[10],10.3
same,EC50,Oryctolagus cuniculus [11],5.2 mg/kg
same,LD50,[12],93.9 mg/kg
same,selectivity ratio,[13],18.1
same,Time,Rattus norvegicus [14],9.6 s
same,Time,Rattus norvegicus [15],92.4 s
same,Time,Rattus norvegicus [16],33.4 s
same,Time,Oryctolagus cuniculus [17],14.5 s
same,Time,Oryctolagus cuniculus [18],292.9 s
same,Time,Oryctolagus cuniculus [19],81.7 s
same,inhibition,[20],89.8%
same,inhibition,[21],9.1%
same,inhibition,[22],7.5%
same,inhibition,[23],1.2%
same,inhibition,[24],2.9%
same,inhibition,[25],4.6%
same,inhibition,[26],15.2%
same,inhibition,[27],11.9%
same,inhibition,[28],1.9%
same,inhibition,[29],11.5%
same,inhibition,[30],4.3%
same,inhibition,[31],10.8%
same,inhibition,[32],12.6%
same,inhibition,[33],5.8%

# From ChEMBL document CHEMBL5131414, “Design, synthesis, and evaluation of phenylpiperazine-phenylacetate derivatives as rapid recovery hypnotic agents” (Bioorg Med Chem Lett, 2022)
